Reference: patent publication US6737383B1, “Herbicidal oxadiazolidines” (priority 1999, dated 2004)

What was measured:
surinam grass = test: Test B pre/postemergence surinam grass; format: in vivo, Brachiaria decumbens
Summary of the method: (§1)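 Test chemicals in a non-phytotoxic solvent mixture with surfactant were sprayed preemergence onto planted seeds and postemergence onto plants 2 to 18 cm tall (1- to 4-leaf stage). After twelve to sixteen days in a greenhouse, injury was visually rated against untreated controls from 0 (no effect) to 10 (complete control).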

rice = test: Test B flood test rice; format: in vivo, Oryza sativa
Summary of the method: (§2)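 Each value is a visual injury score relative to controls, with 10 meaning complete control and 0 no effect. Evaluation took place twelve to sixteen days after the 2-leaf-stage plants were treated and kept in the greenhouse.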

blackgrass = test: Test B pre/postemergence blackgrass; format: in vivo, Alopecurus myosuroides
Summary of the method: as §1

rape = test: Test B pre/postemergence rape; format: in vivo, Brassica napus
Summary of the method: as §1

wheat = test: Test B pre/postemergence wheat; format: in vivo, Triticum aestivum
Summary of the method: as §1

sugar beet = test: Test B pre/postemergence sugar beet; format: in vivo, Beta vulgaris
Summary of the method: as §1

cocklebur = test: Test B pre/postemergence cocklebur; format: in vivo, Xanthium strumarium
Summary of the method: as §1

purple nutsedge = test: Test B pre/postemergence purple nutsedge; format: in vivo, Cyperus rotundus
Summary of the method: as §1

crabgrass = test: Test B pre/postemergence crabgrass; format: in vivo, Digitaria sanguinalis
Summary of the method: as §1

corn = test: Test B pre/postemergence corn; format: in vivo, Zea mays
Summary of the method: as §1

pigweed = test: Test B pre/postemergence pigweed; format: in vivo, Amaranthus retroflexus
Summary of the method: as §1

bamyardgrass = test: Test B flood test barnyardgrass; format: in vivo, Echinochloa crus-galli
Summary of the method: as §2

giant foxtail = test: Test B pre/postemergence giant foxtail; format: in vivo, Setaria faberii
Summary of the method: as §1

soybean = test: Test B pre/postemergence soybean; format: in vivo, Glycine max
Summary of the method: as §1

duck salad = test: Test B flood test duck salad; format: in vivo, Heteranthera limosa
Summary of the method: as §2

smallflower flatsedge = test: Test B flood test smallflower flatsedge; format: in vivo, Cyperus difformis
Summary of the method: as §2

[1] = Postemergence, Rate 31 g/ha, visual rating, scale 0 to 10 (0 no effect, 10 complete control)
[2] = Preemergence, Rate 31 g/ha, visual rating, scale 0 to 10 (0 no effect, 10 complete control)
[3] = Preemergence, Rate 62 g/ha, scale of 0 to 10 where 0 is no effect and 10 is complete control
[4] = Preemergence, Rate 250 g/ha, scale of 0 to 10 where 0 is no effect and 10 is complete control
[5] = Rate 62 g/ha, Postemergence, scale 0 to 10 (0 no effect, 10 complete control)
[6] = Rate 125 g/ha, Postemergence, scale of 0 to 10 where 0 is no effect and 10 is complete control
[7] = Rate 125 g/ha, Preemergence, scale of 0 to 10 where 0 is no effect and 10 is complete control
[8] = Rate 250 g/ha, Postemergence, scale of 0 to 10 where 0 is no effect and 10 is complete control
[9] = Rate 31 g/ha, Pre-emergence section (flood test species), scale 0 to 10
[10] = Rate 62 g/ha, headed Pre-emergence (flood test species), scale 0 to 10 (0 no effect, 10 complete control)
[11] = Rate 125 g/ha, Pre-emergence, flood test species, scale 0 to 10 where 0 is no effect and 10 is complete control
[12] = Rate 250 g/ha, Pre-emergence, flood-test species, scale 0 to 10, 0 is no effect, 10 is complete control

CCOCn1c(=O)on(C(=O)N(c2ccc(F)cc2)C(C)C)c1=O [Compound 295]
6: B. signalgrass plant response rating (surinam grass; [3]) | B. signalgrass plant response rating (surinam grass; [7]) | Wheat plant response rating (wheat; [4]) | Redroot pigweed plant response rating (pigweed; [4]) | Redroot pigweed plant response rating (pigweed; [7]) | Giant foxtail plant response rating (giant foxtail; [6])
4: Blackgrass plant response rating (blackgrass; [2]) | Plant response rating, Soybean (soybean; [8])
7: Blackgrass plant response rating (blackgrass; [6]) | Crabgrass plant response rating (crabgrass; [4]) | Crabgrass plant response rating (crabgrass; [7]) | Plant response rating, Redroot pigweed (pigweed; [8])
9: Plant response rating, Blackgrass (blackgrass; [8]) | Plant response rating, Giant foxtail (giant foxtail; [8])
10: Blackgrass plant response rating (blackgrass; [4]) | Blackgrass plant response rating (blackgrass; [7]) | Rape plant response rating (rape; [4]) | Giant foxtail plant response rating (giant foxtail; [4]) | Giant foxtail plant response rating (giant foxtail; [7])
8: B. signalgrass plant response rating (surinam grass; [4]) | Plant response rating, Crabgrass (crabgrass; [8]) | Giant foxtail plant response rating (giant foxtail; [2]) | Giant foxtail plant response rating (giant foxtail; [3])
1: Soybean plant response rating (soybean; [1])
0: B. signalgrass plant response rating (surinam grass; [1]) | B. signalgrass plant response rating (surinam grass; [5]) | B. signalgrass plant response rating (surinam grass; [6]) | Rice plant response rating (rice; [9]) | Rice plant response rating (rice; [10]) | Rice plant response rating (rice; [11]) | Rice plant response rating (rice; [12]) | Blackgrass plant response rating (blackgrass; [1]) | Rape plant response rating (rape; [1]) | Rape plant response rating (rape; [2]) | Rape plant response rating (rape; [3]) | Rape plant response rating (rape; [5]) | Rape plant response rating (rape; [6]) | Wheat plant response rating (wheat; [1]) | Wheat plant response rating (wheat; [2]) | Wheat plant response rating (wheat; [3]) | Wheat plant response rating (wheat; [5]) | Wheat plant response rating (wheat; [6]) | Sugarbeets plant response rating (sugar beet; [1]) | Sugarbeets plant response rating (sugar beet; [2]) | Sugarbeets plant response rating (sugar beet; [3]) | Sugarbeets plant response rating (sugar beet; [5]) | Sugarbeets plant response rating (sugar beet; [6]) | Sugarbeets plant response rating (sugar beet; [7]) | Plant response rating, Sugarbeets (sugar beet; [8]) | Cocklebur plant response rating (cocklebur; [1]) | Cocklebur plant response rating (cocklebur; [2]) | Cocklebur plant response rating (cocklebur; [3]) | Cocklebur plant response rating (cocklebur; [4]) | Cocklebur plant response rating (cocklebur; [5]) | Cocklebur plant response rating (cocklebur; [6]) | Cocklebur plant response rating (cocklebur; [7]) | Plant response rating, Cocklebur (cocklebur; [8]) | Nutsedge plant response rating (purple nutsedge; [1]) | Nutsedge plant response rating (purple nutsedge; [2]) | Nutsedge plant response rating (purple nutsedge; [3]) | Nutsedge plant response rating (purple nutsedge; [4]) | Nutsedge plant response rating (purple nutsedge; [5]) | Nutsedge plant response rating (purple nutsedge; [6]) | Nutsedge plant response rating (purple nutsedge; [7]) | Plant response rating, Nutsedge (purple nutsedge; [8]) | Crabgrass plant response rating (crabgrass; [1]) | Crabgrass plant response rating (crabgrass; [5]) | Corn plant response rating (corn; [1]) | Corn plant response rating (corn; [2]) | Corn plant response rating (corn; [3]) | Corn plant response rating (corn; [4]) | Corn plant response rating (corn; [5]) | Corn plant response rating (corn; [6]) | Corn plant response rating (corn; [7]) | Plant response rating, Corn (corn; [8]) | Redroot pigweed plant response rating (pigweed; [1]) | Redroot pigweed plant response rating (pigweed; [2]) | Redroot pigweed plant response rating (pigweed; [5]) | Barnyardgrass plant response rating (bamyardgrass; [9]) | Barnyardgrass plant response rating (bamyardgrass; [10]) | Barnyardgrass plant response rating (bamyardgrass; [11]) | Barnyardgrass plant response rating (bamyardgrass; [12]) | Giant foxtail plant response rating (giant foxtail; [1]) | Giant foxtail plant response rating (giant foxtail; [5]) | Soybean plant response rating (soybean; [2]) | Soybean plant response rating (soybean; [3]) | Soybean plant response rating (soybean; [4]) | Soybean plant response rating (soybean; [7]) | Ducksalad plant response rating (duck salad; [9]) | Ducksalad plant response rating (duck salad; [10]) | Ducksalad plant response rating (duck salad; [11]) | Ducksalad plant response rating (duck salad; [12]) | S. Flatsedge plant response rating (smallflower flatsedge; [9]) | S. Flatsedge plant response rating (smallflower flatsedge; [10]) | S. Flatsedge plant response rating (smallflower flatsedge; [11]) | S. Flatsedge plant response rating (smallflower flatsedge; [12])
3: B. signalgrass plant response rating (surinam grass; [2]) | Plant response rating, Rape (rape; [8]) | Wheat plant response rating (wheat; [7]) | Plant response rating, Wheat (wheat; [8]) | Sugarbeets plant response rating (sugar beet; [4]) | Crabgrass plant response rating (crabgrass; [6]) | Redroot pigweed plant response rating (pigweed; [3])
2: Blackgrass plant response rating (blackgrass; [5]) | Rape plant response rating (rape; [7]) | Crabgrass plant response rating (crabgrass; [2]) | Crabgrass plant response rating (crabgrass; [3]) | Soybean plant response rating (soybean; [5]) | Soybean plant response rating (soybean; [6])
5: Plant response rating, B. signalgrass (surinam grass; [8]) | Blackgrass plant response rating (blackgrass; [3]) | Redroot pigweed plant response rating (pigweed; [6])
